Like-named read-outs stand apart in the source and are kept apart here.
Assays:
[1] = Fluorescence change between protonated and deprotonated form of the fluorophore; assay type: physicochemical; conditions: in Tetrahydrofuran, pH set with 1 M HCl or 1,0 M NaOH, fluorophore 10⁻⁷ mol/l
Description: Die Ergebnisse sind in Tabelle 2 angegeben.

[2] = pKa determination from fluorescence intensity as a function of pH; conditions: for pKa: 30 vol% methanol / 70 vol% phosphate buffer, pH 6
Description: (§2) Die Fluorophore werden in einem Gemisch aus 30 Vol.-% Methanol und 70 Vol.-% Phosphatpuffer gelöst und verschiedene pH-Werte zwischen 6 und 13 eingestellt. Die Messlösungen werden in eine Küvette gefüllt und die Fluoreszenzintensität mit einem Spektrophotometer gemessen. Die Fluoreszenzintensität wird als Funktion des pH-Wertes aufgetragen und aus dem Wendepunkt der Kurve der pKa-Wert ermittelt. […] Die Konzentration der Fluorophore beträgt jeweils 10⁻⁷ mol/l.

[3] = Optical potassium determination with sensor membrane (decrease of fluorescence intensity); conditions: aqueous KCl, 1 ml/min, PVC membrane with Valinomycin
Procedure: a) Als Trägermaterial wird vorbehandeltes Glas verwendet. Runde Glasscheiben (Durchmesser 18 mm, Dicke 0,17 mm) werden eine Stunde in eine Lösung von 10 Vol-% Dimethyl-dodecylchlorsilan in Isopropanol getaucht. Danach wäscht man die Glasscheiben nacheinander mit je 200 ml Isopropanol, Ethanol und Methanol und trocknet 1 h bei 110 °C. Die hydrophobisierte Oberfläche weist eine verbesserte Haftung der Membranschicht auf. b) Herstellung der Beschichtungslösung. Die folgenden Bestandteile werden zusammen mit 1,5 ml Tetrahydrofuran in eine 2 ml Flasche gegeben und bis zur Lösung der Komponenten geschüttelt: • 1. 80 mg Polyvinylchlorid (Fluka, 81392) • 2. 160 mg Bis-(2-ethylhexyl)sebacat (Weichmacher) • 3. 5 mg Valinomycin • 4. 1,5 mg Kalium-tetrakis(4-fluorphenyl)borat • 5. 2 mg Fluorophor
c) Herstellung von beschichteten Glasträgern. Die Glasträger werden in der Kammer eines Schleuderbeschichtungsapparats (Optocoat OS 35var, Willer Company, CH-8484 Weisslingen) befestigt. Die Kammer wird mit 10 ml Tetrahydrofuran gespült und 2 min bei 3800 Umdrehungen/Minute rotiert. Danach werden 50 µl der jeweiligen Beschichtungslösung auf den Glasträger pipettiert und der Glasträger noch 10 sec rotiert. Man entfernt den mit einer Membran beschichteten Glasträger und trocknet ihn 10 min an der Luft. d) Spektrale Eigenschaften der Membranen. Die beschichteten Glasträger werden in einer optischen Zelle befestigt, in der die Membran mit der Messflüssigkeit in Berührung steht. Die Membran kann in der optischen Zelle optisch angeregt und die Fluoreszenzstrahlung gemessen werden. Die optische Zelle wird in ein Spektrofluorometer (Pekin-Elmer LS-50) gebracht und das Absorptions- und Emmissionsspektrum gemessen. Ferner wird die relative Fluoreszenzquantenausbeute gemäss der von Calvert und Pitts in Photochemistry, Verlag: John Wiley and Sons Inc., Seiten 799 bis 805 (1966) beschriebenen Methode mit Fluorescein als Standard bestimmt. Die Ergebnisse sind in Tabelle 1 angegeben. Tabelle 1:
(§1) Es wird die gleiche Versuchsanordnung wie in Beispiel B1d verwendet und die Absorptions- sowie Emmissionswellenlängen auf die entsprechenden Maxima der in der Membran eingesetzten Fluorophore eingestellt. Die Membran wird mit einer wässrigen KCl-Lösung definierter Konzentration in Kontakt gebracht, indem man die Lösung mit einer Geschwindigkeit von 1 ml/min durch die Zelle pumpt und die Änderung der Fluoreszenzintensität bestimmt. Vor der Messung und nach jeder Messung wird mit Kaliumionen-freien Pufferlösungen gespült und die Fluoreszenzintensität bestimmt, um die Basislinie festzulegen. Die Erniedrigung der Fluoreszenzintensität in Prozent bei der jeweiligen Kaliumkonzentration für den Fluorophor gemäss Beispiel A5 (Membran B1) sind in der Tabelle 3 angegeben.

[4] = Optical calcium determination with sensor membrane (decrease of fluorescence intensity); conditions: buffer pH 5, Polyurethan (Tecoflex) membrane with Kalzium Ionophor I
Procedure: as §1, with “angegeben. Tabelle 3:” for “angegeben.”
Es wird wie in Beispiel C1 verfahren und die Kalziumionenkonzentration mit einer Membran aus 2 mg Fluorophor gemäss Beispiel A5, 30 mg Kalziumionophor ((-)-(R,R)-N,N-[Bis(11-ethoxycarbonyl)undecyl]-N,N-4,5-tetramethyl-3,6-dioxaoctandia mid, Fluka Kalzium Ionophor I, Katalog Nr. 21192), 6 mg Kalium-tetrakis(4-chlorphenyl)borat, 75 mg Polyurethan (Tecoflex®), 160 mg Bis-2-ethylhexyl-sebacat als Weichmacher und 1 ml Tetrahydrofuran bestimmt. Der Sensor wird einer Pufferlösung bei pH 5 (0,02M NaOH und Essigsäure) unterschiedlichen Kalziumkonzentrationen ausgesetzt. Die Ergebnisse sind in Tabelle 7 angegeben.

[5] = Optical sodium determination with sensor membrane (decrease of fluorescence intensity); conditions: buffer pH 5, Polyurethan (Tecoflex) membrane with Natrium Ionophor V
Procedure: as §1, with “angegeben. Tabelle 3:” for “angegeben.”
Es wird wie in Beispiel C1 verfahren und die Natriumionenkonzentration mit einer Membran aus 2 mg Fluorophor gemäss Beispiel A5, 30 mg Natriumionophor (4-Octadecanoyloxymethyl-N,N,N,N-tetracyxlohexyl- 1 ,2-phenylendioxy-diacetamid, Fluka Natrium Ionophor V, Katalog Nr. 71738), 2 mg Kalium-tetrakis(4-chlorphenyl)borat, 75 mg Polyurethan (Tecoflex®), 160 mg Bis-2-ethylhexyl-sebacat als Weichmacher und 1 ml Tetrahydrofuran bestimmt. Der Sensor wird einer Pufferlösung bei pH 5 (0,1 Mol Tris-hydroxymethyl-aminomit-methan und 1M HCl) unterschiedlichen Natriumkonzentrationen ausgesetzt. Die Ergebnisse sind in Tabelle 6 angegeben.

[6] = 30% methanol phosphate buffer, pH 6
Description: as §2

Q: With `CCCCCCC(=O)Nc1ccc2cc3ccc(NC(=O)CCCCCC)cc3nc2c1` as the molecule, how does the “Änderung Fluoreszenzintensität” value [1] read?
A: 24 Prozent

Q: What about the pKa [2] of the same molecule?
A: 10

Q: With `CCCCCCCCNc1ccc2cc3ccc(NCCCCCCCC)cc3nc2c1` [Beispiel A1, 3,6-Bis(n-octylamino)-acridin] as the molecule, how does the “% Erniedrigung Fluoreszenzintensität” value ([3]; Kalium-Konzentration 0,1 mM) read?
A: 5%

Q: What about the “% Erniedrigung Fluoreszenzintensität” value ([3]; Kalium-Konzentration 0,5 mM) of the same molecule?
A: 15%

Q: What about the “% Erniedrigung Fluoreszenzintensität” value ([3]; Kalium-Konzentration 1,0 mM) of the same molecule?
A: 25%

Q: What about the “% Erniedrigung Fluoreszenzintensität” value ([3]; Kalium-Konzentration 5,0 mM) of the same molecule?
A: 39%

Q: What about the “% Erniedrigung Fluoreszenzintensität” value ([3]; Kalium-Konzentration 10,0 mM) of the same molecule?
A: 45%

Q: What about the “% Erniedrigung Fluoreszenzintensität” value ([3]; Kalium-Konzentration 100,0 mM) of the same molecule?
A: 75%

Q: And the “Änderung Fluoreszenzintensität” value [1]?
A: 44 Prozent

Q: And the pKa [2]?
A: 10

Q: With `CCCCCCCCCCCCCCCCCCCCNc1ccc2cc3ccc(NCCCCCCCCCCCCCCCCCCCC)cc3nc2c1` [Beispiel A2, 3,6-Bis(n-eicosylamino)-acridin] as the molecule, how does the “Änderung Fluoreszenzintensität” value [1] read?
A: 41 Prozent

Q: And the pKa [2]?
A: 11.1

Q: For `CCCCCCCCCCCCCCCCCCCCN=c1ccc2c(-c3ccccc3C(=O)O)c3ccc(N(CC)CC)cc3oc-2c1` [Beispiel A5], which “% Erniedrigung Fluoreszenzintensität” value ([3]; Kalium-Konzentration 0,01 mM) is on record?
A: 5%

Q: And the “% Erniedrigung Fluoreszenzintensität” value ([3]; Kalium-Konzentration 0,1 mM)?
A: 20%

Q: And the “% Erniedrigung Fluoreszenzintensität” value ([3]; Kalium-Konzentration 0,5 mM)?
A: 35%

Q: And the “% Erniedrigung Fluoreszenzintensität” value ([3]; Kalium-Konzentration 1,0 mM)?
A: 45%

Q: And the “% Erniedrigung Fluoreszenzintensität” value ([3]; Kalium-Konzentration 5,0 mM)?
A: 53%

Q: And the “% Erniedrigung Fluoreszenzintensität” value ([3]; Kalium-Konzentration 10,0 mM)?
A: 60%

Q: What about the “% Erniedrigung Fluoreszenzintensität” value ([3]; Kalium-Konzentration 100,0 mM) of the same molecule?
A: 68%

Q: What about the “Änderung Fluoreszenzintensität” value [1] of the same molecule?
A: 33 Prozent

Q: And the pKa [2]?
A: 10.3

Q: And the “% Erniedrigung Fluoreszenzintensität” value ([4]; Kalzium-Konzentration 0,1 mM)?
A: 26,5%

Q: What about the “% Erniedrigung Fluoreszenzintensität” value ([4]; Kalzium-Konzentration 0,5 mM) of the same molecule?
A: 43,1%

Q: What about the “% Erniedrigung Fluoreszenzintensität” value ([4]; Kalzium-Konzentration 0 mM) of the same molecule?
A: 0%

Q: What about the “% Erniedrigung Fluoreszenzintensität” value ([4]; Kalzium-Konzentration 1,0 mM) of the same molecule?
A: 50,6%

Q: And the “% Erniedrigung Fluoreszenzintensität” value ([4]; Kalzium-Konzentration 3,0 mM)?
A: 61,0%

Q: What about the “% Erniedrigung Fluoreszenzintensität” value ([4]; Kalzium-Konzentration 5,0 mM) of the same molecule?
A: 65,8%

Q: What about the “% Erniedrigung Fluoreszenzintensität” value ([4]; Kalzium-Konzentration 7,0 mM) of the same molecule?
A: 68,1%

Q: And the “% Erniedrigung Fluoreszenzintensität” value ([4]; Kalzium-Konzentration 10,0 mM)?
A: 71,0%

Q: What about the “% Erniedrigung Fluoreszenzintensität” value ([5]; Natrium-Konzentration 0 mM) of the same molecule?
A: 0%

Q: And the “% Erniedrigung Fluoreszenzintensität” value ([5]; Natrium-Konzentration 3 mM)?
A: 15%

Q: What about the “% Erniedrigung Fluoreszenzintensität” value ([5]; Natrium-Konzentration 15 mM) of the same molecule?
A: 41%

Q: What about the “% Erniedrigung Fluoreszenzintensität” value ([5]; Natrium-Konzentration 30 mM) of the same molecule?
A: 54%

Q: And the “% Erniedrigung Fluoreszenzintensität” value ([5]; Natrium-Konzentration 90 mM)?
A: 72%

Q: And the “% Erniedrigung Fluoreszenzintensität” value ([5]; Natrium-Konzentration 150 mM)?
A: 79%

Q: And the “% Erniedrigung Fluoreszenzintensität” value ([5]; Natrium-Konzentration 210 mM)?
A: 83%

Q: And the “% Erniedrigung Fluoreszenzintensität” value ([5]; Natrium-Konzentration 300 mM)?
A: 86%

Q: Which pKa-Wert [6] does the source give for `CCCCCCCCN=c1ccc2c(-c3ccccc3C(=O)O)c3ccc(NCCCCCCCC)cc3oc-2c1` [Beispiel A6] here?
A: 12,0

Q: And the “% Erniedrigung Fluoreszenzintensität” value ([3]; Kalium-Konzentration 0,1 mM)?
A: 36%

Q: What about the “% Erniedrigung Fluoreszenzintensität” value ([3]; Kalium-Konzentration 0,5 mM) of the same molecule?
A: 41%

Q: What about the “% Erniedrigung Fluoreszenzintensität” value ([3]; Kalium-Konzentration 1,0 mM) of the same molecule?
A: 43%

Q: What about the “% Erniedrigung Fluoreszenzintensität” value ([3]; Kalium-Konzentration 5,0 mM) of the same molecule?
A: 48%

Q: What about the “% Erniedrigung Fluoreszenzintensität” value ([3]; Kalium-Konzentration 10,0 mM) of the same molecule?
A: 52%

Q: And the “Änderung Fluoreszenzintensität” value [1]?
A: 20 Prozent

Q: For `CCCCCCCCCCCCCCCCCC(=O)N=c1ccc2c(-c3ccccc3C(=O)O)c3ccc(N(CC)CC)cc3oc-2c1` [Beispiel A7], which “Änderung Fluoreszenzintensität” value [1] is on record?
A: 15 Prozent

Q: And the pKa-Wert ([2]; 30 Vol.-% Methanol / 70 Vol.-% Phosphatpuffer, pH 6 to 13, fluorophore 10⁻⁷ mol/l, inflection point of curve)?
A: 10,1
